Experimental data taken from patent US20040198707A1, “Means and method for hormonal contraception” (priority 2001, published 2004).

Test: conversion factors for progestogens: amount equivalent to a given amount of levonorgestrel
Details: estimate of the amount of progestogen equivalent to a given amount of levonorgestrel (levonorgestrel = 1)
Excerpt: In order to determine for a specific biogenic estrogen or synthetic estrogen the amounts that are equivalent to a cited amount of ethinyl estradiol or 17beta-estradiol, the method described by Allen and Doisy may suitably be used (Allen A., Doisy E. A., “An ovarian hormone. Preliminary report on its localization, extraction and partial purification, and action in test animals. JAMA (1923), 81, 819-821). Similarly, in order to determine for a given progestogen the amount equivalent to cited amount of levonorgestrel the method originally described by McPhail can be used (Mc Phail M. K. “The assay of progestin” J Physiol (1934), 83, 145-156). A more recent description of this method can be found in an article written by Overbeek G. A., de Visser J. “A new substance with progestational activity”, Acta Endocrinol (1956), 22,318-329. It is noted that the aforementioned methods will provide useful indications about the anticipated estrogen potency or progestogen potency of a particular hormone. However, to accurately determine the equivalent amounts that are referred to above, it is advisable to additionally conduct in vivo studies in human females.
For guidance the table below provides the conversion factors for a number of progestogens that may suitably be used in the method of the invention. These conversion factors may be used to calculate, for each progestogen mentioned in the table, an estimate of the amount of said progestogen which is equivalent to a given amount of levonorgestrel.

Structure (SMILES)	Conversion factor
C#C[C@]1(OC(C)=O)CC[C@H]2[C@@H]3CCC4=CC(=NO)CC[C@@H]4[C@H]3CC[C@@]21CC (mixture of isomers) [norgestimate]	1.7
C[C@]12CCC(=O)C=C1[C@@H]1C[C@@H]1[C@H]1[C@@H]3[C@@H]4C[C@@H]4[C@@]4(CCC(=O)O4)[C@@]3(C)CC[C@@H]12 [drospirenone]	20
CC(=O)[C@H]1CC[C@H]2[C@@H]3C=CC4=CC(=O)CC[C@@]4(C)[C@@H]3CC[C@]12C [dydrogesterone]	133
C#C[C@]1(O)CC[C@H]2[C@@H]3CCC4=CC(=O)CC[C@@H]4[C@H]3CC[C@@]21C [norethisterone]	7
